In ChEMBL document CHEMBL5303573, “Mapping human microbiome drug metabolism by gut bacteria and their genes” (Nature, 2019):

Tests used:
[1] = The drug is tested on Salmonella typhimurium strain: LT2 for biotransformation. The drug concentrations were measured before and after a 12-h incubation by liquid-chromatography-coupled mass spectrometry (LC–MS); settings: salmonella enterica subsp. enterica, 2 µM
Lipase = target: T1, Lipase (Bacteroides thetaiotaomicron, UniProt Q8A3J3); assay: The drug is tested on Bacteroides thetaiotaomicron strain: VPI-5482 for biotransformation. The drug concentrations were measured before and after a 12-h incubation by liquid-chromatography-coupled mass spectrometry (LC–MS); type: ADME; parameters: dose 2 uM; settings: 2 µM
T1 sequence (Q8A3J3 whole entry): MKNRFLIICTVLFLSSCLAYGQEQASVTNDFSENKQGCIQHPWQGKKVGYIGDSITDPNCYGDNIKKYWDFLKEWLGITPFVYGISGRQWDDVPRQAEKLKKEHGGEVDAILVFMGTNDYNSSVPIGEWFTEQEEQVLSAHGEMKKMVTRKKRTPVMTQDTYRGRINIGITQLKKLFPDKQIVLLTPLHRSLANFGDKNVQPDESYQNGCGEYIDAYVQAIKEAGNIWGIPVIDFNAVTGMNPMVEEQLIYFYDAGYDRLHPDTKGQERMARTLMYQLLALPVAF

GDSL-like protein = target: T2, GDSL-like protein (Collinsella aerofaciens, UniProt A4E8S4); assay: The drug is tested on Collinsella aerofaciens strain: ATCC25986 for biotransformation. The drug concentrations were measured before and after a 12-h incubation by liquid-chromatography-coupled mass spectrometry (LC–MS); type: ADME; parameters: dose 2 uM; settings: 2 µM
T2 sequence (A4E8S4 whole entry): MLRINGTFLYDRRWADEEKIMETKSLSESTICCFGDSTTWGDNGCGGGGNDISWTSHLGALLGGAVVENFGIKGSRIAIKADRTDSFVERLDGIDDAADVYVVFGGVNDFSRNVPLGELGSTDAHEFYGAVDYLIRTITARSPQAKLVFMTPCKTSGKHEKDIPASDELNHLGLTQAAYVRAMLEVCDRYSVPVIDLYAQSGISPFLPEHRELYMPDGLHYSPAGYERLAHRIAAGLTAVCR

Esterase = target: T3, Esterase (Phocaeicola dorei, UniProt B6W2J6); assay: (§1) The drug is tested on Bacteroides dorei strain: DSM17855 for biotransformation. The drug concentrations were measured before and after a 12-h incubation by liquid-chromatography-coupled mass spectrometry (LC–MS); type: ADME; parameters: dose 2 uM; settings: 2 µM
T3 sequence (B6W2J6 whole entry): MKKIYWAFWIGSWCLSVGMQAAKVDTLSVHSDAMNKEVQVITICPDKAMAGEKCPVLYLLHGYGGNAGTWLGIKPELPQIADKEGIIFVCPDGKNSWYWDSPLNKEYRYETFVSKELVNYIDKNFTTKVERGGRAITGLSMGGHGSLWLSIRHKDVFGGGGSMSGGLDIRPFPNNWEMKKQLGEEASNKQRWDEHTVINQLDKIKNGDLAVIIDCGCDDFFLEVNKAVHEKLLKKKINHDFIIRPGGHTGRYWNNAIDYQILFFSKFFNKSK

[2] = target: T4, Nitroreductase domain-containing protein (Phocaeicola dorei, UniProt B6VU18); assay: as §1; type: ADME; parameters: dose 2 uM; settings: 2 µM
T4 sequence (B6VU18 whole entry): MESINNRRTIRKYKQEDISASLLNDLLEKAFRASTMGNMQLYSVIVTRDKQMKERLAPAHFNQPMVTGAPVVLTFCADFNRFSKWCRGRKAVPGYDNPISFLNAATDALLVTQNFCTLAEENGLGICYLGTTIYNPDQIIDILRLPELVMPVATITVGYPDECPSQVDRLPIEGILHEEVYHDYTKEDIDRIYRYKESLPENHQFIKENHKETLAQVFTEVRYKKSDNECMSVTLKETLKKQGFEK

[3] = target: T5, Nitroreductase domain-containing protein (Phocaeicola dorei, UniProt B6W3P3); assay: as §1; type: ADME; parameters: dose 2 uM; settings: 2 µM
T5 sequence (B6W3P3 whole entry): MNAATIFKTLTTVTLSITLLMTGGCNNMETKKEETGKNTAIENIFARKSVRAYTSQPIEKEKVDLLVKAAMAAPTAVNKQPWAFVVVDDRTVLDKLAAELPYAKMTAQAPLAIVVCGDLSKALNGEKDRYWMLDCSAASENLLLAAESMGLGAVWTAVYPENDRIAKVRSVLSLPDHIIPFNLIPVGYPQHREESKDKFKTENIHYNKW

[4] = target: T6, SGNH hydrolase-type esterase domain-containing protein (Phocaeicola dorei, UniProt B6VTE7); assay: as §1; type: ADME; parameters: dose 2 uM; settings: 2 µM
T6 sequence (B6VTE7 whole entry): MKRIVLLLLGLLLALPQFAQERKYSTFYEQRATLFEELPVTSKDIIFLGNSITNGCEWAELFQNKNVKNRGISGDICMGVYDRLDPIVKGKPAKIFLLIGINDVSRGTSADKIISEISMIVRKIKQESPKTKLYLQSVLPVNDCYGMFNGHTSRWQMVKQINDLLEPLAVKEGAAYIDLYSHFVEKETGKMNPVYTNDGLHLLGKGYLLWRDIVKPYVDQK

[5] = target: T7, SGNH hydrolase-type esterase domain-containing protein (Phocaeicola dorei, UniProt B6W1J1); assay: as §1; type: ADME; parameters: dose 2 uM; settings: 2 µM
T7 sequence (B6W1J1 whole entry): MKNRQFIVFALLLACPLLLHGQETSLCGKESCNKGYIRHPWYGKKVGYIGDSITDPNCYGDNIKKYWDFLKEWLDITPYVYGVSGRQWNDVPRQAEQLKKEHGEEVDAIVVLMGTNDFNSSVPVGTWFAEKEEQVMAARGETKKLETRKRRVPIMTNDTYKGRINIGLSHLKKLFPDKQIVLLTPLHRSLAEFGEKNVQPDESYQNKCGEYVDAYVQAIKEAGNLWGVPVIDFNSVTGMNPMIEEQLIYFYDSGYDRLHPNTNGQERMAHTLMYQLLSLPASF

[6] = The drug is tested on Clostridium hathewayi strain: DSM13479 for biotransformation. The drug concentrations were measured before and after a 12-h incubation by liquid-chromatography-coupled mass spectrometry (LC–MS); settings: hungatella hathewayi, 2 µM
[7] = The drug is tested on Clostridium spiroforme strain: DSM1552 for biotransformation. The drug concentrations were measured before and after a 12-h incubation by liquid-chromatography-coupled mass spectrometry (LC–MS); settings: thomasclavelia spiroformis, 2 µM
[8] = clostridioides difficile, 12 h, 2 µM
Description: The drug is tested on Clostridium difficile strain: 120 for biotransformation. The drug concentrations were measured before and after a 12-h incubation by liquid-chromatography-coupled mass spectrometry (LC–MS)

Structure (SMILES)	Bacterial Biotransformation [1]	Bacterial Biotransformation (Lipase)	Bacterial Biotransformation (GDSL-like protein)	Bacterial Biotransformation (Esterase)	Bacterial Biotransformation [2]	Bacterial Biotransformation [3]	Bacterial Biotransformation [4]	Bacterial Biotransformation [5]	Bacterial Biotransformation [6]	Bacterial Biotransformation [7]	Bacterial Biotransformation [8]
CC(=O)Oc1ccc(C(c2ccc(OC(C)=O)cc2)c2ccccn2)cc1 [BISACODYL]	Compound metabolized	Compound metabolized	Compound metabolized	Compound metabolized	Compound NOT metabolized	Compound NOT metabolized	Compound metabolized	Compound metabolized			
C#C[C@]1(O)CC[C@H]2[C@@H]3CCC4=Cc5oncc5C[C@]4(C)[C@H]3CC[C@@]21C [DANAZOL]		Compound NOT metabolized	Compound NOT metabolized	Compound NOT metabolized	Compound NOT metabolized	Compound NOT metabolized	Compound NOT metabolized	Compound NOT metabolized			
CC(=O)SCC(Cc1ccccc1)C(=O)NCC(=O)OCc1ccccc1 (configuration not stated) [RACECADOTRIL]		Compound metabolized	Compound metabolized	Compound NOT metabolized	Compound NOT metabolized	Compound NOT metabolized	Compound NOT metabolized	Compound NOT metabolized			
CC(=O)Nc1ccc(OC(C)=O)cc1 [DIACETAMATE]		Compound metabolized	Compound metabolized	Compound metabolized	Compound NOT metabolized	Compound NOT metabolized	Compound metabolized	Compound metabolized			
CCN(CC)C(=O)/C(C#N)=C/c1cc(O)c(O)c([N+](=O)[O-])c1 [ENTACAPONE]		Compound NOT metabolized	Compound NOT metabolized	Compound NOT metabolized	Compound NOT metabolized	Compound NOT metabolized	Compound NOT metabolized	Compound NOT metabolized			
CCS(=O)(=O)CCn1c([N+](=O)[O-])cnc1C [TINIDAZOLE]		Compound NOT metabolized	Compound NOT metabolized	Compound NOT metabolized	Compound metabolized	Compound metabolized	Compound NOT metabolized	Compound NOT metabolized			
C[C@@H]1CC[C@H]2[C@@H](C)C(=O)O[C@@H]3O[C@@]4(C)CC[C@@H]1[C@]32OO4 [ARTEMISININ]		Compound NOT metabolized	Compound NOT metabolized	Compound NOT metabolized	Compound NOT metabolized	Compound NOT metabolized	Compound NOT metabolized	Compound NOT metabolized	Compound metabolized	Compound metabolized	Compound metabolized
CC(=O)OCC(=O)NCCCOc1cccc(CN2CCCCC2)c1 [ROXATIDINE ACETATE]		Compound NOT metabolized	Compound NOT metabolized	Compound NOT metabolized	Compound NOT metabolized	Compound NOT metabolized	Compound NOT metabolized	Compound NOT metabolized			
Nc1ccc(/N=N/c2ccccc2)c(N)n1 [PHENAZOPYRIDINE]		Compound NOT metabolized	Compound NOT metabolized	Compound NOT metabolized	Compound NOT metabolized	Compound NOT metabolized	Compound NOT metabolized	Compound NOT metabolized			
